Data published in US20220119354A1, “DIAMINO-SUBSTITUTED PYRIDINES AND PYRIMIDINES AS HERBICIDES” (FMC Corporation, priority 2019, published 2022).

Tests used:
Type in all cases: in vivo
[1] = system: barnyardgrass (Echinochloa crus-galli); assay: Test A preemergence, barnyardgrass; conditions: 0 to 100 scale, 0 is no effect, 100 is complete control
Outline: (§1)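 Using a solvent/surfactant formulation, test chemicals were sprayed onto freshly seeded soil or onto 2–10 cm seedlings at the one- to two-leaf stage. Visual injury ratings on a 0–100 scale were made about 10 d later in the greenhouse.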

[2] = system: ryegrass, Italian (Lolium multiflorum); assay: Test A postemergence, Italian ryegrass; conditions: 0 to 100 scale, 0 no effect, 100 complete control
Outline: as §1

[3] = system: kochia (Kochia scoparia); assay: Test A postemergence, kochia; conditions: 0 to 100 scale, 0 no effect, 100 complete control
Outline: as §1

[4] = system: wheat (Triticum aestivum); assay: Test A postemergence, wheat; conditions: 0 to 100 scale, 0 no effect, 100 complete control
Outline: as §1

[5] = system: sedge, umbrella (small-flower umbrella sedge, Cyperus difformis); assay: Test B flooded paddy test, umbrella sedge; conditions: Flood, 250 g ai/ha, applied to paddy water, 2-leaf stage, visual evaluation after 13 to 15 d
Outline: (§2)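 Rating: 0 = no effect, 100 = complete control, visual, relative to untreated plants. Conditions: 2-leaf stage, 3 cm flood kept constant, compound put directly into water, 13–15 d greenhouse.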

[6] = system: corn (Zea mays); assay: Test A postemergence, corn; conditions: 0 to 100 scale, 0 no effect, 100 complete control
Outline: as §1

[7] = system: galium (catchweed bedstraw, Galium aparine); assay: Test A postemergence, galium; conditions: 0 to 100 scale, 0 no effect, 100 complete control
Outline: as §1

[8] = system: blackgrass (Alopecurus myosuroides); assay: Test A postemergence, blackgrass; conditions: 0 to 100 scale, 0 no effect, 100 complete control
Outline: as §1

[9] = system: rice (Oryza sativa); assay: Test B flooded paddy test, rice; conditions: Flood, 250 g ai/ha, applied to paddy water, 2-leaf stage, visual evaluation after 13 to 15 d
Outline: as §2

[10] = system: foxtail, giant (Setaria faberii); assay: Test A preemergence, giant foxtail; conditions: 0 to 100 scale, 0 is no effect, 100 is complete control
Outline: as §1

[11] = system: pigweed (Amaranthus retroflexus); assay: Test A preemergence, pigweed; conditions: 0 to 100 scale, 0 is no effect, 100 is complete control
Outline: as §1

[12] = system: kochia (Kochia scoparia); assay: Test A preemergence, kochia; conditions: 0 to 100 scale, 0 is no effect, 100 is complete control
Outline: as §1

[13] = system: foxtail, giant (Setaria faberii); assay: Test A postemergence, giant foxtail; conditions: 0 to 100 scale, 0 no effect, 100 complete control
Outline: as §1

[14] = system: ryegrass, Italian (Lolium multiflorum); assay: Test A preemergence, Italian ryegrass; conditions: 0 to 100 scale, 0 is no effect, 100 is complete control
Outline: as §1

[15] = system: ducksalad (Heteranthera limosa); assay: Test B flooded paddy test, ducksalad; conditions: Flood, 250 g ai/ha, applied to paddy water, 2-leaf stage, visual evaluation after 13 to 15 d
Outline: as §2

[16] = system: pigweed (Amaranthus retroflexus); assay: Test A postemergence, pigweed; conditions: 0 to 100 scale, 0 no effect, 100 complete control
Outline: as §1

[17] = system: ragweed (common ragweed, Ambrosia elatior); assay: Test A postemergence, ragweed; conditions: 0 to 100 scale, 0 no effect, 100 complete control
Outline: as §1

[18] = system: barnyardgrass (Echinochloa crus-galli); assay: Test B flooded paddy test, barnyardgrass; conditions: Flood, 250 g ai/ha, applied to paddy water, 2-leaf stage, visual evaluation after 13 to 15 d
Outline: as §2

[19] = system: barnyardgrass (Echinochloa crus-galli); assay: Test A postemergence, barnyardgrass; conditions: 0 to 100 scale, 0 no effect, 100 complete control
Outline: as §1

[20] = system: ragweed (common ragweed, Ambrosia elatior); assay: Test A preemergence, ragweed; conditions: 0 to 100 scale, 0 is no effect, 100 is complete control
Outline: as §1

SMILES	Barnyardgrass plant response rating ([1]; 31 g ai/ha)	Barnyardgrass plant response rating ([1]; 125 g ai/ha)	Plant response rating, Ryegrass, Italian ([2]; 31 g ai/ha)	Plant response rating, Ryegrass, Italian ([2]; 125 g ai/ha)	Plant response rating, Kochia ([3]; 31 g ai/ha)	Plant response rating, Kochia ([3]; 125 g ai/ha)	Plant response rating, Wheat ([4]; 31 g ai/ha)	Plant response rating, Wheat ([4]; 125 g ai/ha)	Plant response rating, Sedge, Umbrella (0 to 100 scale, 0 is no effect, 100 is complete control) [5]	Plant response rating, Corn ([6]; 31 g ai/ha)	Plant response rating, Corn ([6]; 125 g ai/ha)	Plant response rating, Galium ([7]; 31 g ai/ha)	Plant response rating, Galium ([7]; 125 g ai/ha)	Plant response rating, Blackgrass ([8]; 31 g ai/ha)	Plant response rating, Blackgrass ([8]; 125 g ai/ha)	Plant response rating, Rice (0 to 100 scale, 0 is no effect, 100 is complete control) [9]	Foxtail, Giant plant response rating ([10]; 31 g ai/ha)	Foxtail, Giant plant response rating ([10]; 125 g ai/ha)	Pigweed plant response rating ([11]; 31 g ai/ha)	Pigweed plant response rating ([11]; 125 g ai/ha)	other results
Cc1cccc2sc([C@@H](C)Nc3ncc(C(F)(F)F)c(N)n3)cc12 [Compound 115]	20	60	30	50	70	90	0	20	95	10	100	50	90	0	30	0	30	90	90	100	Kochia plant response rating ([12]; 31 g ai/ha): 40; Kochia plant response rating ([12]; 125 g ai/ha): 80; Plant response rating, Foxtail, Giant ([13]; 31 g ai/ha): 60; Plant response rating, Foxtail, Giant ([13]; 125 g ai/ha): 100; Ryegrass, Italian plant response rating ([14]; 31 g ai/ha): 20; Ryegrass, Italian plant response rating ([14]; 125 g ai/ha): 40; Plant response rating, Ducksalad (0 to 100 scale, 0 is no effect, 100 is complete control) [15]: 65; Plant response rating, Pigweed ([16]; 31 g ai/ha): 100; Plant response rating, Pigweed ([16]; 125 g ai/ha): 100; Plant response rating, Ragweed ([17]; 31 g ai/ha): 30; Plant response rating, Ragweed ([17]; 125 g ai/ha): 80; Plant response rating, Barnyardgrass (0 to 100 scale, 0 is no effect, 100 is complete control) [18]: 90; Plant response rating, Barnyardgrass ([19]; 31 g ai/ha): 10; Plant response rating, Barnyardgrass ([19]; 125 g ai/ha): 100; Ragweed plant response rating ([20]; 31 g ai/ha): 60; Ragweed plant response rating ([20]; 125 g ai/ha): 80
C[C@@H](Nc1ncc(C(F)(F)F)c(N)n1)c1cc2c(Cl)cccc2s1 [Compound 116]	0	30	30	30	30	80	0	0	65	20	30	60	80	0	0	0	20	60	40	80	Kochia plant response rating ([12]; 31 g ai/ha): 30; Kochia plant response rating ([12]; 125 g ai/ha): 40; Plant response rating, Foxtail, Giant ([13]; 31 g ai/ha): 10; Plant response rating, Foxtail, Giant ([13]; 125 g ai/ha): 90; Ryegrass, Italian plant response rating ([14]; 31 g ai/ha): 20; Ryegrass, Italian plant response rating ([14]; 125 g ai/ha): 40; Plant response rating, Ducksalad (0 to 100 scale, 0 is no effect, 100 is complete control) [15]: 60; Plant response rating, Pigweed ([16]; 31 g ai/ha): 90; Plant response rating, Pigweed ([16]; 125 g ai/ha): 100; Plant response rating, Ragweed ([17]; 31 g ai/ha): 40; Plant response rating, Ragweed ([17]; 125 g ai/ha): 60; Plant response rating, Barnyardgrass (0 to 100 scale, 0 is no effect, 100 is complete control) [18]: 35; Plant response rating, Barnyardgrass ([19]; 31 g ai/ha): 10; Plant response rating, Barnyardgrass ([19]; 125 g ai/ha): 50; Ragweed plant response rating ([20]; 31 g ai/ha): 60; Ragweed plant response rating ([20]; 125 g ai/ha): 70
